In one assay the test system is IL-13. The experiment in a line: Human primary Th2 cells, anti-CD3/anti-CD28 activated, IL-13 ELISA. The assay is classed as cell-based. On the procedure: Briefly, CD4^+CD45RA^+ T cells, isolated from donor peripheral blood mononuclear cells of healthy donors, are educated in the presence of anti-CD3/CD28 antibodies and various growth factors to obtain either a Thl-like or Th2-like phenotypes as determined by the known cytokine profiles of these two cell types.
Peripheral blood mononuclear cells (PBMC) are prepared from human blood by Ficoll-Hypacque (Pharmacia). The cells are washed two times in Hanks balanced salt solution (HBSS) and counted.
Naive T cells (CD4^+/CD45RA ) are prepared by negative selection method using following antibodies and Dynabeads: anti-CD8, anti-HLA-DR, (where HLA means human leucocyte antigen) anti-CD14, anti-CD16, anti-CD19, anti-CD45RO antibodies (all from R&D Systems, 1-2 µg/ml) are added to the cells, and the cells are kept on ice for 30 min. The cells are washed two times in HBSS, and goat anti- mouse Ig-beads, (bead:target ratio, 5:1) are added. The cells and beads are slowly rotated at 4°C for 20 min. (following the protocol supplied from Dynal). The supernatant is removed and fresh goat anti-mouse Ig-beads are added to the supernatant, which is slowly rotated at 4°C for 20 min. The cells are counted and phenotypically characterized by flow cytometric analysis.
CD4^+/CD45RA^+ cells at a density of 10^6/ml in RPMI, is prepared and added to RPMI medium containing 10% Hyclone serum/ glutamine and 1-2 µg/ml anti-CD28 Ab. The cells are split in two aliquots. For Th1 cells: anti-IL-4 Ab (1-2 µg/ml), IFN-γ (1 µg/ml, or 5000 units/ml) are added to the wells. For Th2 cells: IL-4 (100-200 ng/ml), anti-IFN-γ neutralizing Ab (1-2 µg/ml), anti-IL-12 neutralizing Ab (1-2 µg/ml) are added into the wells. […] The cells are transferred to fresh wells and grown in 200 units/ml IL-2 for 2 weeks by feeding them every other day with IL-2 containing medium and splitting the cultures 1:2 or 1:3 as needed. The degree of polarization is determined by intracellular staining of cells with anti-IFN-γ and anti-IL-4 antibodies from Pharmingen, and using flow cytometry from Becton Dickinson (BD), according to manufacturers description. The cells are stimulated with PHA and alloantigens at day 14 and 28 as described below. Eight days after the second allostimulation the cells can be used for compound screening or frozen for future use. For compound testing, large quantities of Th1 and Th2 cells derived from a given donor (NYTh1 and NYTh2) were expanded and frozen as aliquots in liquid nitrogen. The cells are thawed and cultured as and when needed. The thawed cells are stimulated with alloantigen/PHA combination. The cells are used for compound screening after 8-10 days in culture.
Re-stimulation by allogeneic cells: Human PBMCs, to be used as alloantigens, are isolated from freshly drawn blood by Ficoll separation. […] Cells are counted and diluted to a final concentration of 2 x 10^6/ml in medium containing 10 µg/ml PHA and 200 units/ml IL-2.
Ninetysix well Falcon tissue culture plates (Fisher Scientific) are coated with 100 microliters per well of 10 µg/ml anti-CD3 (PharMingen) antibody in phosphate buffered saline (PBS) and stored at 4°C one day before the experiment.
On the day of assay, anti-CD3 antibody coated plates are washed with PBS once to remove all soluble anti-CD3 antibody. […] All compounds and controls are assayed in triplicates.
Background: An ELISA detects its analyte on a solid surface through an enzyme-linked reagent.

The test system of assay [1] is sheep allergic to Ascaris suum. Briefly: Sheep asthma model (Ascaris suum antigen challenge). It is filed as in vivo. Here is the method: Briefly, transpulmonary pressure, pulmonary resistance (RL), specific lung resistance (SRL airway hyperreactivity, airway responsiveness, are determined.
Venous blood samples (-5 ml) are obtained from a peripheral leg vein or the jugular vein for pharmacokinetic data. Measurement of Airway Mechanics: The unsedated sheep are restrained in a cart in the prone position with their heads immobilized. After topical anesthesia of the nasal passages with 2% lidocaine solution, a balloon catheter is advanced through one nostril into the lower esophagus. The animals are […] with a cuffed endotracheal tube through the other nostril using a flexible fiberoptic bronchoscope as a guide. (The cuff of the endotracheal tube is inflated only for the measurement of airway mechanics and during aerosol challenges to prevent undue discomfort. This procedure has no effect on airway mechanics). Pleural pressure is estimated with the esophageal balloon catheter (filled with one ml of air) which is positioned 5-10 cm from the gastroesophageal junction. In this position the end expiratory pleural pressure ranges between -2 and -5 cm H20. […] Lateral pressure in the trachea is measured with a sidehole catheter (inner dimension, 2.5 mm) advanced through and positioned distal to the tip of the endotracheal tube. Transpulmonary pressure, the difference between tracheal and pleural pressure, is measured with a differential pressure transducer catheter system. […] The signals of flow and transpulmonary pressure is recorded on an oscilloscope recorder which is linked to a computer for on-line calculation of RL from transpulmonary pressure, respiratory volume (obtained by digital integration) and flow. […] Immediately after the measurement of RL, thoracic gas volume (Vtg) is measured in a constant volume body plethysmograph to obtain specific lung resistance (SRL = RL . Vtg) in L x cm H20/LPS. […] To assess airway responsiveness, the cumulative carbachol dose in breath units (BU) that increases SRL 400% over the post-buffer value (i.e. PC400) is calculated from the dose response curve. […]

[2] abbreviates: 3 mg/kg aerosol 30 min before antigen challenge, 2 sheep per group, FIG. 3A.

pIC50: −log10 of the molar value.

As for `O=C(O)c1[nH]c2ccccc2c1Nc1ccncc1` [Example 28, 3-(4-Pyridinylamino)-1H-indole-2-carboxylic acid], in the assay with IL-13 (Homo sapiens, 0.01 µM, 48 hr, read-out: IL-13 (% control) mean), the activity at 0.01 µM was determined as 91%. Further, the activity at 0.03 µM in the assay on IL-13 (Homo sapiens, 0.03 µM, 48 hr, read-out: IL-13 (% control) mean) was 86.4%. Moreover, the activity at 0.1 µM in the assay with IL-13 (Homo sapiens, 0.1 µM, 48 hr, read-out: IL-13 (% control) mean) was found to be 82.3%. Moreover, in the assay on IL-13 (Homo sapiens, 0.3 µM, 48 hr, read-out: IL-13 (% control) mean), the activity at 0.3 µM worked out at 80.6%. For the same compound, the activity at 1 µM in the assay with IL-13 (Homo sapiens, 1 µM, 48 hr, read-out: IL-13 (% control) mean) was determined as 75.2%. Besides, in the assay with IL-13 (Homo sapiens, 3 µM, 48 hr, read-out: IL-13 (% control) mean), the activity at 3 µM was 73.4%. Moreover, in the assay with IL-13 (Homo sapiens, 10 µM, 48 hr, read-out: IL-13 (% control) mean), the activity at 10 µM was 68.4%. The pIC50 in the assay on IL-13 (Human primary Th2 cells, combined data from 10 different experiments) is around 5.00. Moreover, in assay [1] (setting [2]), the “acute increase in specific lung resistance (SRL), early bronchial response” value is reported as “did not affect” and the “late bronchial response (SRL)” value was “blocked the late response”. Besides, the “post challenge airway responsiveness (PC400 decrease after antigen challenge)” value in assay [1] (3 mg/kg, 2 sheep, FIG. 3B) was “prevented this effect”.

Broadly, the pIC50 is the IC50 on a negative log10 scale, so that one unit is a factor of ten.

Values taken from patent publication EP1501797B1, “3-(SUBSTITUTED AMINO)-1H-INDOLE-2-CARBOXYLIC ACID ESTER AND 3-(SUBSTITUTED AMINO)-BENZO[B]THIOPHENE-2-CARBOXYLIC ACID ESTER DERIVATIVES AS INTERLEUKIN-4 GENE EXPRESSION INHIBITORS” (Aventis Pharmaceuticals Inc., priority 2002, dated 2003).
